# Reference: US20130045948A1, “AZOCYCLIC INHIBITORS OF FATTY ACID AMIDE HYDROLASE” (E I DU PONT DE NEMOURS AND COMPANY, priority 2009, published 2013)
# pIC50: −log10 of the molar value.
# Key:
# female Cr1:CD1(ICR) mice = test: Tail immersion assay in mice (analgesic potential, in combination with anandamide); conditions: for % MPE (percent of the maximum possible effect (test-baseline)/(10-baseline)) / Test Time / Baseline Time: mean; for Baseline Time: prior to administration of compounds, tail in water 52+/−1° C.; for analgesic effects at the rate tested (conclusion) / % of the treated animals exhibiting the maximum measured response time of 10 sec: 10 mg/kg i.p. plus anandamide 50 mg/kg
# Experimental: Test substances were injected once by intraperitoneal (i.p.) route to female Cr1:CD1(ICR) mice. The tail immersion assay was conducted prior to administration of compounds to establish baseline values and again after administration of compounds.
# Analgesia was evaluated in female mice by immersing approximately 3.5 cm of each tail into water that was maintained at 52+/−1° C. for a maximum of 10 seconds (sec). The length of time until the animal removed its tail from the water or made a significant tail movement was measured. If the response time was less than 5 sec, a second trial was conducted.
# Based on the results of the preliminary study, the time interval between administration of the test substances and anandamide was established as 40 minutes. In addition, the time interval between administration of anandamide and conducting the tail immersion assay was established to be 40 minutes.
# The formulations were made on the day of dosing and administered once by intraperitoneal route.
# [1] = cited from earlier work
# [2] = biological target: T1, recombinant human FAAH (MBP-ΔTM-FAAH) (Homo sapiens, UniProt O00519); test: FAAH assay, fluorogenic substrate D-AMC; format: biochemical; conditions: D-AMC 5 μM, pH 8.0, 37° C.
# T1 construct: The region of the gene corresponding to amino acids 34 to 579 was cloned into pMAL-c4x; made in house; host or cells: E. coli T7 Express
# T1 sequence (O00519 34-579): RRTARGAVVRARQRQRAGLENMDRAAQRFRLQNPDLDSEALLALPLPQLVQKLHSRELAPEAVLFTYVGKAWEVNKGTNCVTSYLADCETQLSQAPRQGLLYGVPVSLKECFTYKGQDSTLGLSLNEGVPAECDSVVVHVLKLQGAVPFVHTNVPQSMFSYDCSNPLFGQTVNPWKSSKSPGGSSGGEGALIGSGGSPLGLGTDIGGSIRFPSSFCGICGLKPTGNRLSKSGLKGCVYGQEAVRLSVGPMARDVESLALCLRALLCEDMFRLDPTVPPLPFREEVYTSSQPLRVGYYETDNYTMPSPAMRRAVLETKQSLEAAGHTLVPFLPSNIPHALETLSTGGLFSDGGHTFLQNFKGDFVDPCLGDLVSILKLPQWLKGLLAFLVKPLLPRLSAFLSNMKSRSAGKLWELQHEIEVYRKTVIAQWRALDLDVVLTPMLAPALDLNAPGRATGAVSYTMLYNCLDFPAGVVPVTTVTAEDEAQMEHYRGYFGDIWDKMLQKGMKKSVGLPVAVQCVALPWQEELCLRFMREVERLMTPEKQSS
# Experimental: E. coli T7 Express cells, containing the FAAH constructs, were used for expression of protein by induction with IPTG (isopropyl-β-D-thiogalactopyranoside) (100 μM) overnight at room temperature in Lennox Broth with 0.2% glucose. After harvest, the cells were resuspended in 20 mM Hepes buffer (pH 7.4) containing 200 mM NaCl, 2 mM DTT (dithiothreitol). The cell suspension was lysed by sonication, and the cell debris removed by centrifugation. […] The enzyme was eluted using 15 mM maltose as per manufacturer's (New England BioLabs, Inc.) instruction. Fractions containing FAAH were concentrated and further purified using Sephacryl™ 5100 (HIPrep™ 26/60, GE Healthcare, Inc.) chromatography. […]
# FAAH assay—Enzyme activity was measured using the fluorogenic substrate, decanoyl 7-amino-4-methylcoumarin (D-AMC) as described by Kage, K. L. et al. J. of Neuroscience Methods 2007, 161, 47-54. […] Reactions were carried out in black 96-well microplates (Costar, Inc) using a SpectraMax Gemini™ (Molecular Devices, Inc.) fluorescence plate reader in a reaction volume of 200 μL per well at 37° C. Reaction rates were monitored at an emission wavelength of 430 nm using an excitation wavelength of 351 nm over 30 to 40 minutes. Experimental compounds were initially evaluated at a single concentration of 2 μM.
# [3] = anandamide 50 mg/kg i.p. alone (negative control), assay 40 minutes after
# [4] = 10 mg/kg i.p., anandamide 50 mg/kg i.p. 40 minutes later, assay 40 minutes after anandamide
# [5] = 10 mg/kg i.p., anandamide 50 mg/kg i.p. 40 minutes later, assay 40 minutes after anandamide, maximum 10 sec
SMILES,% MPE (percent of the maximum possible effect (test-baseline)/(10-baseline)) (female Cr1:CD1(ICR) mice; [3]) [%],Test Time (female Cr1:CD1(ICR) mice; [3]) [s],Baseline Time (female Cr1:CD1(ICR) mice; maximum 10 sec) [s],causing hypothermia or analgesia ([1]; anandamide alone),analgesic effects at the rate tested (conclusion) (female Cr1:CD1(ICR) mice),% MPE (percent of the maximum possible effect (test-baseline)/(10-baseline)) (female Cr1:CD1(ICR) mice; [4]) [%],Test Time (female Cr1:CD1(ICR) mice; [5]) [s],% of the treated animals exhibiting the maximum measured response time of 10 sec (female Cr1:CD1(ICR) mice) [%],pIC50 [2],analgesic effect ([1]; anandamide administered along with OL-135)
"CCCCC/C=C\C/C=C\C/C=C\C/C=C\CCCC(=O)NCCO [Anandamide, reference compound]",20.3,6.7,6.9,largely ineffective,,,,,,
"O=C(Nc1ccccc1)N1CCC(c2nc(C3=NOC(c4ccccc4)C3)cs2)CC1 (stereo not drawn) [Compound 1, 4-[4-(4,5-dihydro-5-phenyl-3-isoxazolyl)-2-thiazolyl]-N-phenyl-1-piperidinecarboxamide]",,,3.5,,no analgesic effects,20.2,5.0,,,
"O=C(Oc1ccccc1)N1CCC(c2nc(C3=NOC(c4ccccc4)C3)cs2)CC1 (stereo not drawn) [Compound 11, phenyl 4-[4-(4,5-dihydro-5-phenyl-3-isoxazolyl)-2-thiazolyl]-1-piperidinecarboxylate]",,,5.8,,analgesic effects,100.0,10.0,100,,
O=C(Nc1nccs1)N1CCC(c2nc(C3=NOC(c4ccccc4)C3)cs2)CC1 (stereo not drawn) [Compound 49],,,7.5,,no analgesic effects,−4.0,6.4,,,
O=C(Oc1ccccc1)N1CCC(c2nc(C3=NOC4(CCCc5ccccc54)C3)cs2)CC1 (stereo not drawn) [Compound 52],,,,,,,,,7.54,
O=C(Oc1ccccc1Cl)N1CCC(c2nc(C3=NOC(c4ccccc4)C3)cs2)CC1 (stereo not drawn) [Compound 61],,,6.0,,analgesic effects,86.9,9.4,90,,
"O=C(CCCCCCc1ccccc1)c1ncc(-c2ccccn2)o1 [OL-135, reference compound]",,,4.1,,,61.5,7.6,,,significantly elevated
